{"source": "patent US20120100227A1", "about": "“KINASE PROTEIN BINDING INHIBITORS” (University of Florida Research Foundation, priority 2009, published 2012)", "key": {"[1]": {"tested_on": "colon cancer HCT116 p53−/− cells", "experiment": "Apoptosis assay, HCT116 p53−/−", "type": "cell-based, human", "settings": "dose-dependent", "method": "(§1) Apoptosis Assay. Detached cells were collected and fixed in 3.7% formaldehyde in 1×PBS solution for the apoptosis assay. Detection of apoptosis was done with Hoechst 33342 staining. The percent of apoptotic cells was calculated as a ratio of apoptotic detached cells divided by the total number of cells in three independent experiments in several fields with the fluorescent microscope. For each experiment 300 cells per treatment were counted.\n(§2) To study M13 effect in colon cancer cells and its dependence on p53 pathway, we did similar experiments to BT474 cells with colon cancer HCT116 p53−/− and p53+/+ cells. […] Thus, the in vitro effect of M13 on viability, detachment and apoptosis was p53-independent."}, "[2]": {"tested_on": "BT474 breast cancer cells", "experiment": "Cell viability (MTT) assay, BT474", "type": "cell-based, human", "settings": "different concentrations, 24 hours", "method": "(§3) Cell lines and culture. BT474 breast carcinoma cells were maintained in RPMI1640 medium supplemented with 10% fetal bovine serum (FBS), 5 μg/ml insulin, and 1 μg/ml penicillin/streptomycin. The MCF-7 cell line was obtained from ATCC and maintained according to the manufacturer's protocol. HCT116p53+/+ and p53−/− colon cancer cells were maintained in McCoy's5A medium with 10% FBS.\n(§4) Cell Viability Assay. The cells were treated with compounds at different concentrations for 24 hours. The 3-(4,5-dimethylthiazol-2-yl)-5-(3-carboxymethoxyphenyl)-2-(4-sulfophenyl)-2H-tetrazolium compound from Promega Viability kit (Madison, Ill.) was added, and the cells were incubated at 37 C for 1-2 hours. The optical density on 96-plate was analyzed with a microplate reader at 490 nm to determine cell viability."}, "[3]": {"tested_on": "BT474 breast cancer cells", "experiment": "Apoptosis assay (Hoechst 33342), BT474", "type": "cell-based, human", "settings": "BT474, Hoechst 33342 staining of detached cells", "method": "as §1"}, "[4]": {"tested_on": "colon cancer HCT116 p53+/+ cells", "experiment": "Cell viability assay, HCT116 p53+/+", "type": "cell-based, human", "settings": "dose-dependent", "method": "as §3, §4, §2"}, "[5]": {"tested_on": "colon cancer HCT116 p53−/− cells", "experiment": "Cell viability assay, HCT116 p53−/−", "type": "cell-based, human", "settings": "dose-dependent", "method": "as §3, §4, §2"}, "[6]": {"set-up": "species or system nude mice", "settings": "female, nude, mouse, in vivo", "method": "(§5) Tumor Growth in Nude Mice in vivo. Female nude mice, 6 weeks old, were purchased from Harlan Laboratory. The mice were maintained in the animal facility and all experiments were performed in compliance with NIH animal-use guidelines and IACUC protocol approved by the UF Animal Care Committee. BT474 cells were injected, 2×10^6 cells/injection subcutaneously. HCT116p53−/− and HCT116p53+/+ cells were injected subcutaneously into the left and right side of the same mice to decrease variations. In preliminary experiment different doses of the compound were introduced into the mice, and 30-50 mg/kg was chosen as optimal, non-toxic doses. The day after injection, the M13 compound was introduced by IP injection at 30 mg/kg dose daily 5 days/week for 3 weeks. Tumor diameters were measured with calipers and tumor volume in mm^3 was calculated using this formula=(width)^2×Length/2. At the end of experiment, tumor weight and volume was determined."}, "[7]": {"tested_on": "colon cancer HCT116 p53+/+ cells", "experiment": "Detachment assay, HCT116 p53+/+", "type": "cell-based, human", "settings": "dose-dependent", "method": "(§6) Detachment Assay. Cells were plated with and without inhibitors for 24 hours, and detached and attached cells were counted in a hemocytometer. We calculated the percent of detachment by dividing the number of detached cells by the total number of cells. The percent of detached cells was calculated in three independent experiments.\nas §2"}, "[8]": {"tested_on": "colon cancer HCT116 p53+/+ cells", "experiment": "Apoptosis assay, HCT116 p53+/+", "type": "cell-based, human", "settings": "dose-dependent", "method": "as §1, §2"}, "[9]": {"tested_on": "different cancer cells, including breast, melanoma, colon and pancreatic cancers", "experiment": "MTT cell viability assay in different cancer cells", "type": "cell-based, human", "settings": "MTT assay with 24 M inhibitors, M13 the best of all tested", "method": "as §4\nThe name of this compound is Monotritylthymidine and it is available and was ordered from Sigma."}, "[10]": {"tested_on": "colon cancer HCT116 p53−/− cells", "experiment": "Detachment assay, HCT116 p53−/−", "type": "cell-based, human", "settings": "dose-dependent", "method": "as §6, §2"}, "BT474 cells [11]": {"tested_on": "BT474 cells", "experiment": "Western blotting of BT474 cells (FAK, Y397-FAK, Mdm-2, p53, caspase-8)", "type": "cell-based, human", "settings": "BT474, different doses of M13, Western blot", "method": "Western Blotting. Cells or homogenized tumor samples were washed twice with cold 1×PBS and lysed on ice for 30 minutes in a buffer containing: 50 mM Tris-HCl (pH 7.5), 150 mM NaCl, 1% Triton-X, 0.5% NaDOC, 0.1% SDS, 5 mM EDTA, 50 mM NaF, 1 mM NaVO3, 10% glycerol and protease inhibitors: 10 μg/ml leupeptin, 10 μg/ml PMSF and 1 μg/m1 aprotinin. The lysates were cleared by centrifugation at 10,000 rpm for 30 minutes at 4° C. Protein concentrations were determined using a Bio-Rad Kit. The boiled samples were loaded on Ready SDS-10% PAGE gels (Bio Rad, Inc) and used for Western blot analysis with the protein-specific antibody. Immunoblots were developed with chemiluminescence Renaissance reagent (NEN Life Science Products, Inc). For quantification, densitometry of protein bands was performed with NIH Scion Image software.\nM13 caused dose-dependent increase of Mdm-2, decrease of FAK and activation of caspase-8 in BT474 cells. We treated BT474 cells with different doses of M13 and performed Western blotting with anti-FAK, Y397-FAK, Mdm-2, p53 and caspase-8 antibodies."}, "[12]": {"tested_on": "BT474 breast cancer cells", "experiment": "Detachment assay, BT474", "type": "cell-based, human", "settings": "BT474, 24 hours", "method": "as §6"}, "[13]": {"tested_on": "MCF-7 breast cancer cells", "experiment": "Viability, detachment and apoptosis, MCF-7", "type": "cell-based, human", "settings": "MCF-7, compared with BT474", "method": "as §3, §4, §6\nApoptosis Assay. […] The percent of apoptotic cells was calculated as a ratio of apoptotic detached cells divided by the total number of cells in three independent experiments in several fields with the fluorescent microscope. […]"}, "[14]": {"target": "T1, complex of FAK and Mdm-2 in BT474 cells (Homo sapiens, UniProt Q05397)", "T1 construct": "We immunoprecipitated FAK and found complex of FAK with Mdm-2; endogenous in cells; host or cells: BT474 breast cancer cells", "T1 sequence (Q05397 whole entry, one chain of several)": "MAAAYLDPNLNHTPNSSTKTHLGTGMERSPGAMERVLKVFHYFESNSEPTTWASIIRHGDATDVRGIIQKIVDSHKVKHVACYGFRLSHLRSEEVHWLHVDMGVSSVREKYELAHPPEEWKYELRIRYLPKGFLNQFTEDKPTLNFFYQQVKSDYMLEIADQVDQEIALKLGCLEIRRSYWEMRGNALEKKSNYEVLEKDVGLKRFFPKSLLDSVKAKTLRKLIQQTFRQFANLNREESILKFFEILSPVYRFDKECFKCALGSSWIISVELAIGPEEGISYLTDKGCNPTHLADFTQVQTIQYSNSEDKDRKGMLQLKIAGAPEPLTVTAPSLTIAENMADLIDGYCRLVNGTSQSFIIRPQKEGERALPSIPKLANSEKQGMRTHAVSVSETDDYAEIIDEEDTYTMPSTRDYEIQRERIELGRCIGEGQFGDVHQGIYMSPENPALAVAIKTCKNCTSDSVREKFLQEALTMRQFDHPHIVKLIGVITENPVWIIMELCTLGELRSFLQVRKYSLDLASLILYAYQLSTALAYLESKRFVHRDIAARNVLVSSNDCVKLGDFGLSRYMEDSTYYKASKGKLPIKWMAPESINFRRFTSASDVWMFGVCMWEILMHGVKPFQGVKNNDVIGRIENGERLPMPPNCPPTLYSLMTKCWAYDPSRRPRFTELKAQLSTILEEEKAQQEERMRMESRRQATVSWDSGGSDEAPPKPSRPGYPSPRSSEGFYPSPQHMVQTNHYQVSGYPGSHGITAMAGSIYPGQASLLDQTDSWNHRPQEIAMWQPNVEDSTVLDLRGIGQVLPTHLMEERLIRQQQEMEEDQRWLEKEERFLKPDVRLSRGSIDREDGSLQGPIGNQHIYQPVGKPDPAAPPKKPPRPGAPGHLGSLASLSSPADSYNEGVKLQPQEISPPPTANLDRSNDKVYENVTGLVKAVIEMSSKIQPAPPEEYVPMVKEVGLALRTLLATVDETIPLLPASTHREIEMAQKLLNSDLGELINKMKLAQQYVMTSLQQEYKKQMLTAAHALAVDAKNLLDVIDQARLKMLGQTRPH", "experiment": "Immunoprecipitation of FAK, complex with Mdm-2", "type": "cell-based", "set-up": "dose or concentration left out as unconfirmed", "method": "Immunoprecipitation. Immunoprecipitation was performed according to the standard protocol. In brief, the pre-cleared lysates with equal amount of protein were incubated with 1 μg of primary antibody and 30 μl A/G agarose beads overnight at 4° C. The precipitates were washed with lysis buffer three times and re-suspended in 2×Laemmli buffer. The boiled samples were used for Western blotting, as described above.\nM13 disrupts complex of FAK and Mdm-2 in BT474 cells. We immunoprecipitated FAK and found complex of FAK with Mdm-2, confirming and reproducing data of Lim et al, Molecular Cell, 2008. At […] dose of M13, there was decreased level of FAK and complex with Mdm-2."}, "HCT116p53+/+ cells": {"tested_on": "HCT116p53+/+ cells", "experiment": "Tumor growth in nude mice, HCT116 p53+/+", "type": "in vivo", "settings": "HCT116 p53+/+ subcutaneous tumors, 30 mg/kg IP; no significant difference to p53−/−", "method": "as §5\n(§7) M13 decreased similarly colon tumorigenesis in both HCT116 p53+/+ and p53−/− in vivo. […] Thus, in vivo effect of M13 on tumorigenesis is p53-independent."}, "BT474 cells [15]": {"tested_on": "BT474 cells", "experiment": "Tumor growth in nude mice, BT474", "type": "in vivo", "settings": "BT474 subcutaneous tumors, 30 mg/kg IP daily 5 days/week for 3 weeks", "method": "as §5\nM13 decreased breast tumorigenesis in vivo Breast cancer BT474 cells were implanted into the mice to generate tumors."}, "HCT116p53−/− cells": {"tested_on": "HCT116p53−/− cells", "experiment": "Tumor growth in nude mice, HCT116 p53−/−", "type": "in vivo", "settings": "HCT116 p53−/− subcutaneous tumors, 30 mg/kg IP; no significant difference to p53+/+", "method": "as §5, §7"}}}
{"molecule": "Cc1cn(C2CC(O)C(COC(c3ccccc3)(c3ccccc3)c3ccccc3)O2)c(=O)[nH]c1=O", "note": "(stereo not shown) [M13, 1-[4-hydroxy-5-[tri(phenyl)methoxymethyl]oxolan-2-yl]-5-methylpyrimidine-2,4-dione]", "values": [{"measurement": "apoptosis", "setting": "[1]", "value": "increased detachment and apoptosis"}, {"measurement": "viability", "setting": "[2]", "value": "decreased viability of BT474 breast cancer cells in a dose-dependent manner"}, {"measurement": "apoptosis", "setting": "[3]", "value": "dose-dependent increase detachment and apoptosis"}, {"measurement": "viability", "setting": "[4]", "value": "equally decreased viability"}, {"measurement": "viability", "setting": "[5]", "value": "equally decreased viability"}, {"measurement": "optimal, non-toxic doses", "setting": "[6]", "value": "30 to 50", "unit": "mg/kg"}, {"measurement": "detachment", "setting": "[7]", "value": "increased detachment"}, {"measurement": "apoptosis", "setting": "[8]", "value": "increased detachment and apoptosis"}, {"measurement": "viability of cancer cells", "setting": "[9]", "value": "significantly decreased viability of most cancer cells"}, {"measurement": "detachment", "setting": "[10]", "value": "increased detachment"}, {"measurement": "FAK levels", "setting": "BT474 cells [11]", "value": "decreased FAK levels"}, {"measurement": "Mdm-2 levels", "setting": "BT474 cells [11]", "value": "increased Mdm-2 levels"}, {"measurement": "activation of caspase-8", "setting": "BT474 cells [11]", "value": "caused activation of caspase-8"}, {"measurement": "detachment", "setting": "[12]", "value": "dose-dependent increase detachment"}, {"measurement": "effect on viability, detachment and apoptosis", "setting": "[13]", "value": "the same as with BT474 cells"}, {"measurement": "association of FAK and Mdm-2 (complex)", "setting": "[14]", "value": "decreased association of FAK and Mdm-2"}, {"measurement": "tumor size", "setting": "HCT116p53+/+ cells", "value": "decrease of tumor size"}, {"measurement": "breast tumorigenesis in vivo", "setting": "BT474 cells [15]", "value": "effectively decreased breast tumorigenesis"}, {"measurement": "tumor size", "setting": "HCT116p53−/− cells", "value": "decrease of tumor size"}]}
